Data published in patent US7868135B2, “Compositions of lipopeptide antibiotic derivatives and methods of use thereof” (priority 2003, dated 2011).

Key:
[1] = Acute toxicity, maximum tolerated dose (MTD); settings: Swiss CD1, mouse, in vivo, iv
Experimental: Another measure of toxicity is the maximum tolerated dose (MTD), which is determined as a dose level that is not accompanied by mortality or life-threatening toxicity. The dose ratio between toxic and therapeutic effect is the therapeutic index. […] The data obtained from these cell culture assays and animal studies can be used in formulating a dosage range that is not toxic for use in human subjects. […] The dosage may vary within this range depending upon the dosage form employed and the route of administration utilized. The exact formulation, route of administration and dosage can be chosen by the individual physician in view of the patient's condition or need thereof (see, e.g., Fingl et al., 1975, In: The Pharmacological Basis of Therapeutics, Chapter 1).
For example, to examine acute toxicity, lipopeptide antibiotics of the invention can be tested in an animal model, such as Swiss CD1 mice, to determine the MTD. In certain embodiments, the animals used to test toxicity of a particular compound can be approximately 5-6 weeks old at the start of the experiment and weigh 22-26 g. The lipopeptides may be administered intravenously (i.v.) into, for example, the caudal tail vein at dose levels that range from about 50 to about 500 mg/kg, or from about 75 to about 250 mg/kg, or from about 100 to about 200 mg/kg, or at a dose range at or below 100 mg/kg. The animals are generally observed immediately after administration, 1-2 hours post administration, 5-8 hours post administration, and once daily thereafter. Observations include both the activity level of the mouse as well as any physical side effects from the administered dose. The animal weight is recorded on day 0 (immediately before dosing) and on day 7.

[2] = system: Staphylococcus aureus; type: cell-based; settings: for Post Antibiotic Effect (hours) 0.5 × MIC: exposure one hour at 0.5 × MIC, S. aureus log phase; for Post Antibiotic Effect (hours) 1 × MIC: exposure one hour at 1 × MIC; for Post Antibiotic Effect (hours) 2 × MIC: exposure one hour at 2 × MIC; for Post Antibiotic Effect (hours) 4 × MIC: exposure one hour at 4 × MIC
Experimental: An exemplary pharmacokinetic parameter to aid in characterizing the properties of lipopeptide derivative compounds of the disclosure is post-antibiotic effect (PAE) of a lipopeptide derivative. For example, a bacterial culture with an initial count of 10^6 to 10^7 colony forming units per ml (CFU/ml) is treated with a certain concentration of lipopetide derivative for a certain time and a parallel (control) culture is left untreated. After treatment, the lipopetide derivative is removed from the culture (e.g., by dilution 1:1000 in fresh, lipopetide derivative-free medium), and the untreated culture is manipulated in the same way. Then the cultures are further incubated and monitored for bacterial growth over time. […] By way of background and not wishing to be bound by theory, a lipopeptide derivative having a measurable PAE activity will likely provide additional time for the host immune system to remove bacteria that might have survived antibiotic treatment and reproduced after the antibiotic is degraded, removed or filtered from the circulatory system. A longer PAE can influence the clinical outcome of antimicrobial therapy (i.e., a lower dose of a lipopetide derivative may be used to treat an infection or the frequency of a dosing regimen can be reduced).
After removal of the lipopeptide compounds, bacterial titre was determined each hour to monitor bacterial re-growth. The PAE duration is defined as the difference in time required for antimicrobial exposed bacterial cells versus unexposed bacterial cells to achieve an increase of 1 log10 unit in CFU/mL.

[3] = in vivo; settings: male, Sprague Dawley, rat, plasma, iv, 10 mg/kg
Experimental: Yet other exemplary in vivo models can be used to characterize the pharmacokinetics and pharmacodynamic parameters of antimicrobial compounds of this disclosure. Some parameters that can be measured include an in vivo half-life of a compound, elimination rate and clearance, volume of distribution, and bioavailability. For example, briefly, compounds can be administered as a single i.v. or oral (p.o.) dose in mice or rats. At various time points (ranging from 1 minute to 72 hours), blood from treated animals is collected and the concentration of lipopeptide derivative in the ex vivo plasma can be quantified by, for example, liquid chromatography with mass spectrometric detection (LC/MS). After quantification, pharmacokinetics parameters can be calculated using methods known in the art, such as a one compartment model with mono-exponential decay and linear regression analysis (see, e.g., Fantin et al., Antimicrob. Agents Chemotherap. 35: 1413. 1991).
A pharmacokinetic parameter that can be measured, and which aids in determining efficacy, after a single i.v. administration of an antimicrobial lipopeptide derivative of the instant disclosure is the systemic half-life of the compound. Briefly, test compounds were dissolved in a 5% mannitol solution (pH was then adjusted) to a concentration of 1 mg/mL (w/v). A single intravenous injection in the lateral caudal vein of Swiss CD1 mice (5 to 6 weeks old, female) or Sprague Dawley rats (male) was used to administer the lipopeptide derivative at a final dose of 10 mg/kg. At various time points (ranging from about 4 minutes to about 24 hours for mice, and 48 or 72 hours for rats) mice were sacrificed and blood was harvested. The concentration of lipopeptide derivative in ex vivo plasma was quantified using liquid chromatography (LC) with mass spectrometric detection (MS).

[4] = system: Staphylococcus aureus (SAU0017); assay: Thigh infection model in neutropenic mice; type: in vivo; settings: neutropenic Swiss CD1 mice, i.m. S. aureus, i.v. treatment two hours post-infection, thigh CFU at 24 hours
Experimental: Other exemplary in vivo models of infection that may be used to assess, for example, the efficacy of an antimicrobial lipopeptide of the instant disclosure include the following: (A) a mouse (murine) model of lung infection (pneumonia) wherein the bacterial infection is administered intranasally (i.n.); (B) a murine thigh muscle model wherein the bacterial infection is administered intramuscularly (i.m.) in normal or neutropenic (immunocompromised) mice; and (C) a combination murine thigh muscle model (i.m. infection)/lung (i.n.) infection.

[5] = system: Staphylococcus aureus (MSSA); settings: 24 h
Method in brief: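 Broth microdilution MIC per NCCLS M7-A6 with doubling serial dilutions, in cation-adjusted Mueller-Hinton broth supplemented with 0.625 mM calcium.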

Compound	MTD at 7 days [1] [mg/kg]	MIC used for the PAE experiment [2] [µg/mL]	Post Antibiotic Effect (hours) 0.5 × MIC [2] [h]	Post Antibiotic Effect (hours) 1 × MIC [2] [h]	Post Antibiotic Effect (hours) 2 × MIC [2] [h]	Post Antibiotic Effect (hours) 4 × MIC [2] [h]	half-life [3] [h]	ED50 [4] [mg/kg]	MIC [5] [µg/mL]
CCCCCCCCCCCCCCC(=O)NC(CC(=O)O)C(=O)NC1C(=O)N2CCCCC2C(=O)NC(C(C)C(=O)O)C(=O)NC(CC(=O)O)C(=O)NCC(=O)NC(CC(=O)O)C(=O)NCC(=O)NC(C(C)NC(=O)CNC(=O)[C@@H](N)CCCCN)C(=O)NC(C(C)C)C(=O)N2CCCC2C(=O)NC1C (stereo partly shown) [Compound 4, C15-Amphomycin-9-Gly-Lys]	200 to 400	1	0.6	0.7	1.9	3.0	1.09		
CCCCCCCCCCCCCCC(=O)NC(CC(=O)O)C(=O)NC1C(=O)N2CCCCC2C(=O)NC(C(C)C(=O)O)C(=O)NC(CC(=O)O)C(=O)NCC(=O)NC(CC(=O)O)C(=O)NCC(=O)NC(C(C)NC(=O)CCN)C(=O)NC(C(C)C)C(=O)N2CCCC2C(=O)NC1C (stereo not drawn) [Compound 147, C15-Amphomycin-9-(β-Ala)]		1	1.6	1.6	1.9	1.0	4.58	1.1 to 1.8	
CCCCCCCCCCCCCCC(=O)NC(CC(=O)O)C(=O)NC1C(=O)N2CCCCC2C(=O)NC(C(C)C(=O)O)C(=O)NC(CC(=O)O)C(=O)NCC(=O)NC(CC(=O)O)C(=O)NCC(=O)NC(C(C)NC(=O)CN(C)C(=O)[C@@H](N)CCCCN)C(=O)NC(C(C)C)C(=O)N2CCCC2C(=O)NC1C (stereo partly shown) [Compound 199, C15-Amphomycin-9-Sar-Lys]	200 to 400								0.5 to 1
